Results: patent publication US8048881B2, “Pyrimidine derivatives and their use as P2Y12 receptor antagonists” (Actelion Pharmaceuticals Ltd., priority 2005, dated 2011)
pIC50: −log10 of the molar value. Where a name gives a salt, the structure may show the parent alone.

molecular target: T1, human P2Y12 receptor (Homo sapiens, UniProt Q9H244); assay: P2Y12 receptor binding assay; settings: CHO cells with recombinant expression of the human P2Y12 receptor; tritium-labeled 2-methyl-S-ADP; incubation at room temperature for 2 hours
T1 construct: expressed in transfected cells; host or cells: Chinese Hamster Ovary (CHO) cells
Description: P2Y12 Receptor Binding Assay
Chinese Hamster Ovary (CHO) cells with recombinant expression of the human P2Y12 receptor were cultured in 24 well cell-culture plates. Cells were washed three times with binding buffer (50 mM Tris pH 7.4, 100 mM NaCl, 1 mM EDTA, 0.5% BSA). The cells were then incubated with 0.5 ml per well binding buffer containing tritium-labeled 2-methyl-thio-adenosine 5′-diphosphate (2-methyl-S-ADP) (between 100'000 and 300'000 dpm per well) and various concentrations of test compounds. After incubation at room temperature for 2 hours, cells were washed three times with binding buffer. Then, cells were solubilized by addition of 0.5 ml solubilization buffer (SDS, NaOH, EDTA). The content of each well was then transferred into beta-counter vials and 2.0 ml of Ultima Gold Scintillation liquid was added.

T1 sequence (Q9H244 whole entry): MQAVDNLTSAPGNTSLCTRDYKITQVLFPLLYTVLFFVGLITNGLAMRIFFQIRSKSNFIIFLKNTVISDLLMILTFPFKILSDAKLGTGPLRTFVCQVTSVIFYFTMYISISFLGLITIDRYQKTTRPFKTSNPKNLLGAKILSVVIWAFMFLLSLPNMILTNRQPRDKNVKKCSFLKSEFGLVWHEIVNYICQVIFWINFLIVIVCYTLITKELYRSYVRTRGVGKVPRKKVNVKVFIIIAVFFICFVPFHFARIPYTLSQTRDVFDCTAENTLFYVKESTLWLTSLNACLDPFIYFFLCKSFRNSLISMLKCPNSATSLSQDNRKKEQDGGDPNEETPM

SMILES	pIC50
CCOC(=O)N1CCN(C(=O)[C@H](CO)NC(=O)c2cc(OC3CCCC3)nc(-c3ccccc3)n2)CC1 [Example 10, 4-{(S)-2-[(6-cyclopentyloxy-2-phenyl-pyrimidine-4-carbonyl)-amino]-3-hydroxy-propionyl}-piperazine-1-carboxylic acid ethyl ester]	6.51
CCOC(=O)N1CCN(C(=O)[C@H](CCC(=O)OC(C)(C)C)NC(=O)c2cc(OCC(=O)O)nc(-c3ccccc3)n2)CC1 [Example 132, 4-{(S)-4-tert-butoxycarbonyl-2-[(6-carboxymethoxy-2-phenyl-pyrimidine-4-carbonyl)-amino]-butyryl}-piperazine-1-carboxylic acid ethyl ester]	5.09
CCOC(=O)N1CCN(C(=O)[C@H](CCC(=O)O)NC(=O)c2cc(N[C@H]3CC[C@H](O)CC3)nc(-c3ccccc3)n2)CC1 [Example 243, 4-((S)-4-carboxy-2-{[6-(trans-4-hydroxy-cyclohexylamino)-2-phenyl-pyrimidine-4-carbonyl]-amino}-butyryl)-piperazine-1-carboxylic acid ethyl ester]	6.65
CCOC(=O)N1CCN(C(=O)[C@H](CCC(=O)O)NC(=O)c2cc(NCCCN3CCOCC3)nc(-c3ccccc3)n2)CC1 [Example 66, 4-((S)-4-carboxy-2-{[6-(3-morpholin-4-yl-propylamino)-2-phenyl-pyrimidine-4-carbonyl]-amino}-butyryl)-piperazine-1-carboxylic acid ethyl ester triflate salt]	6.69
CCOC(=O)N1CCN(C(=O)[C@H](CCC(=O)O)NC(=O)c2cc(OC3CCCC3)nc(-c3ccccc3)n2)CC1C (stereo partly drawn) [Example 46, 4-{(S)-4-carboxy-2-[(6-cyclopentyloxy-2-phenyl-pyrimidine-4-carbonyl)-amino]-butyryl}-2-methyl-piperazine-1-carboxylic acid ethyl ester]	6.29
CCOC(=O)N1CCN(C(=O)[C@H](CCC(=O)O)NC(=O)c2cc(C)nc(-c3cccc(C)c3)n2)CC1 [Example 105, 4-{(S)-4-carboxy-2-[(6-methyl-2-m-tolyl-pyrimidine-4-carbonyl)-amino]-butyryl}-piperazine-1-carboxylic acid ethyl ester]	6.03
CCOC(=O)N1CCN(C(=O)[C@H](CCC(=O)O)NC(=O)c2cc(CCO)nc(-c3ccccc3)n2)CC1 [Example 408, 4-((S)-4-carboxy-2-{[6-(2-hydroxy-ethyl)-2-phenyl-pyrimidine-4-carbonyl]-amino}-butyryl)-piperazine-1-carboxylic acid ethyl ester]	6.68
CCOC(=O)CCNc1cc(C(=O)N[C@@H](CCC(=O)O)C(=O)N2CCN(C(=O)OCC)CC2)nc(-c2ccccc2)n1 [Example 59, 4-((S)-4-carboxy-2-{[6-(2-ethoxycarbonyl-ethylamino)-2-phenyl-pyrimidine-4-carbonyl]-amino}-butyryl)-piperazine-1-carboxylic acid ethyl ester triflate salt]	6.56
CCOC(=O)N1CCN(C(=O)[C@H](CC(=O)O)NC(=O)c2cc(OC3CCCC3)nc(-c3ccccc3)n2)CC1 [Example 2, 4-{(S)-3-carboxy-2-[(6-cyclopentyloxy-2-phenyl-pyrimidine-4-carbonyl)-amino]-propionyl}-piperazine-1-carboxylic acid ethyl ester]	6.61
CCOC(=O)N1CCN(C(=O)C(Cc2cccc(OCC(=O)O)c2)NC(=O)c2cc(OC3CCCC3)nc(-c3ccccc3)n2)CC1 (centres unmarked) [Example 31, 4-{3-(3-carboxymethoxy-phenyl)-2-[(6-cyclopentyloxy-2-phenyl-pyrimidine-4-carbonyl)-amino]-propionyl}-piperazine-1-carboxylic acid ethyl ester]	6.23

The remaining compounds from weak to strong by pIC50, led by results:

pIC50	SMILES
6.70	CCOC(=O)N1CCN(C(=O)[C@H](Cc2ccc(C(=O)O)cc2)NC(=O)c2cc(OC3CCCC3)nc(-c3ccccc3)n2)CC1 [Example 21, 4-{(S)-3-(4-carboxy-phenyl)-2-[(6-cyclopentyloxy-2-phenyl-pyrimidine-4-carbonyl)-amino]-propionyl}-piperazine-1-carboxylic acid ethyl ester]
6.71	CCOC(=O)N1CCN(C(=O)[C@H](CCC(=O)O)NC(=O)c2cc(OCC3CC3)nc(-c3ccccc3)n2)CC1 [Example 27, 4-{(S)-4-carboxy-2-[(6-cyclopropylmethoxy-2-phenyl-pyrimidine-4-carbonyl)-amino]-butyryl}-piperazine-1-carboxylic acid ethyl ester]
6.76	CCOC(=O)N1CCN(C(=O)[C@H](CCC(=O)O)NC(=O)c2cc(NCC(C)O)nc(-c3ccccc3)n2)CC1 (stereo partly drawn) [Example 231, 4-((S)-4-carboxy-2-{[6-(2-hydroxy-propylamino)-2-phenyl-pyrimidine-4-carbonyl]-amino}-butyryl)-piperazine-1-carboxylic acid ethyl ester]
6.79	CCOC(=O)N1CCN(C(=O)[C@H](CCC(=O)O)NC(=O)c2cc(N)nc(-c3ccccc3)n2)CC1 [Example 333, 4-{(S)-2-[(6-amino-2-phenyl-pyrimidine-4-carbonyl)-amino]-4-carboxy-butyryl}-piperazine-1-carboxylic acid ethyl ester triflate salt]
6.89	CCOC(=O)N1CCN(C(=O)[C@H](CCC(=O)O)NC(=O)c2cc(-c3ccc[n+]([O-])c3)nc(-c3ccccc3)n2)CC1 [Example 418, 4-((S)-4-carboxy-2-{[6-(1-oxy-pyridin-3-yl)-2-phenyl-pyrimidine-4-carbonyl]-amino}-butyryl)-piperazine-1-carboxylic acid ethyl ester]
6.90	CCOC(=O)N1CCN(C(=O)[C@H](CCCC(=O)O)NC(=O)c2cc(-c3ccccc3)nc(-c3ccccc3)n2)CC1 [Example 121, 4-{(S)-5-carboxy-2-[(2,6-diphenyl-pyrimidine-4-carbonyl)-amino]-pentanoyl}-piperazine-1-carboxylic acid ethyl ester]
6.97	CCOC(=O)N1CCN(C(=O)[C@H](CCC(=O)O)NC(=O)c2cc(CS(=O)(=O)CC)nc(-c3ccccc3)n2)CC1 [Example 375, 4-{(S)-4-carboxy-2-[(6-ethanesulfonylmethyl-2-phenyl-pyrimidine-4-carbonyl)-amino]-butyryl}-piperazine-1-carboxylic acid ethyl ester]
7.00	CCOC(=O)N1CCN(C(=O)[C@H](CCC(=O)O)NC(=O)c2cc(SC3CCCC3)nc(-c3ccccc3)n2)CC1 [Example 249, 4-{(S)-4-carboxy-2-[(6-cyclopentylsulfanyl-2-phenyl-pyrimidine-4-carbonyl)-amino]-butyryl}-piperazine-1-carboxylic acid ethyl ester]
7.00	CCOC(=O)N1CCN(C(=O)[C@H](CCC(=O)O)NC(=O)c2cc(N3CCOCC3)nc(-c3ccccc3)n2)CC1 [Example 225, 4-{(S)-4-carboxy-2-[(6-morpholin-4-yl-2-phenyl-pyrimidine-4-carbonyl)-amino]-butyryl}-piperazine-1-carboxylic acid ethyl ester formate salt]
7.01	CCCCc1cc(C(=O)N[C@@H](CCC(=O)O)C(=O)N2CCN(C(=O)OCC)CC2)nc(-c2ccccc2)n1 [Example 88, 4-{(S)-2-[(6-butyl-2-phenyl-pyrimidine-4-carbonyl)-amino]-4-carboxy-butyryl}-piperazine-1-carboxylic acid ethyl ester]
7.12	CCOC(=O)N1CCN(C(=O)[C@H](CCC(=O)O)NC(=O)c2cc(/C=C/CCO)nc(-c3ccccc3)n2)CC1 [Example 421, 4-((S)-4-carboxy-2-{[6-((E)-4-hydroxy-but-1-enyl)-2-phenyl-pyrimidine-4-carbonyl]-amino}-butyryl)-piperazine-1-carboxylic acid ethyl ester]
7.14	CCOC(=O)N1CCN(C(=O)[C@H](CCC(=O)O)NC(=O)c2cc(-c3cn[nH]c3)nc(-c3ccccc3)n2)CC1 [Example 396, 4-((S)-4-carboxy-2-{[2-phenyl-6-(1H-pyrazol-4-yl)-pyrimidine-4-carbonyl]-amino}-butyryl)-piperazine-1-carboxylic acid ethyl ester]
7.14	CCOC(=O)N1CCN(C(=O)[C@H](CCC(=O)O)NC(=O)c2cc(C(C)=O)nc(-c3ccccc3)n2)CC1 [Example 402, 4-{(S)-2-[(6-acetyl-2-phenyl-pyrimidine-4-carbonyl)-amino]-4-carboxy-butyryl}-piperazine-1-carboxylic acid ethyl ester]
